# Results published in US9745267B2, “Compounds as modulators of RORC” (Boehringer Ingelheim International GmbH, priority 2013, dated 2017).
# Biological target: T1, RORγt (hRORC LBD) (Homo sapiens, UniProt P51449)
# T1 construct: expressed in transfected cells; host or cells: HEK 293 (transient cotransfection with pGL4.3 luc2P/GAL4UAS/Hygro reporter)
# T1 sequence (P51449 269-508 limits assumed): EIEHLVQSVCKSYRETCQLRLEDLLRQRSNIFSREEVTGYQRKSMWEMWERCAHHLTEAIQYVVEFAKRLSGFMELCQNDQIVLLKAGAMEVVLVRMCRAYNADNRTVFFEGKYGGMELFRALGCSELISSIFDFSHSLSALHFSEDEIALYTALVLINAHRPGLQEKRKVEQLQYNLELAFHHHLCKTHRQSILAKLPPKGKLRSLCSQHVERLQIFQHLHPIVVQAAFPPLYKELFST
# Experiment: RGA Assay: nuclear receptor transactivation assay, RORγt transactivation of a luciferase reporter
# Format: cell-based
# Details: transiently transfected HEK 293 cells, Gal4DBD hRORC LBD, 20-24 hours incubation
# Protocol: A nuclear receptor transactivation assay was performed to quantitate the ability of test compounds to inhibit RORγt transactivation of a luciferase reporter. A similar assay is described in: Khan et al., Bioorganic & Medicinal Chemistry Letters 23 (2013), 532-536. The system uses transiently transfected HEK 293 cells cotransfected with two plasmids (pGL4.3, luc2P/GAL4UAS/Hygro, and pBIND, Gal4DBD hRORC LBD1-3). The positive control is co-transiently transfected with both plasmids, and the negative control contains the pGL4.3 promoter sequence. Assays were assembled in 384 well plates where transiently transfected cells and test compound at varying concentrations were incubated for 20-24 hours. The next day, assays plates are taken out and equilibrated at RT for 20-30 minutes. Bright-Glo™ Luciferase Assay System is used to detect Luciferase production. After addition of Bright GLO detection reagent, the plates were incubated at RT for 20 minutes. The plates were read on an Envision plate reader to measure luminescence signal. The RLU signal is converted to POC relative to control and blank wells.
# Compound Dilution Buffer:
# Bright Glo Luciferase Assay System: Promega #E2620
# Thaw lysis buffer provided in kit, add 100 mL lysis buffer to substrate powder.
row,SMILES,IC50 [nM]
1,CNS(=O)(=O)c1ccc(CNC(=O)N2CC3(CCCC3)c3cc(-c4cccc5cccnc45)ccc32)cc1 [Example 4],1500
2,CNS(=O)(=O)c1ccc(CNC(=O)N2CC3(CCCC3)c3cc(-c4cccc(N5CCCC5)c4)ccc32)cc1 [Example 5],1600
3,CCOCc1ccccc1-c1ccc2c(c1)C1(CCCC1)CN2C(=O)NCc1ccc(S(=O)(=O)NC)cc1 [Example 21],1100
4,CNS(=O)(=O)c1ccc(CNC(=O)N2CC3(CCCC3)c3cc(-c4cccc(C)c4C)ccc32)cc1 [Example 22],1200
5,CNS(=O)(=O)c1ccc(CNC(=O)N2CC3(CCCC3)c3cc(-c4ccc(OC)cc4C)ccc32)cc1 [Example 23],1200
6,CCOC(=O)c1ccccc1-c1ccc2c(c1)C1(CCCC1)CN2C(=O)NCc1ccc(S(=O)(=O)NC)cc1 [Example 24],1300
7,CNS(=O)(=O)c1ccc(CNC(=O)N2CC3(CCCC3)c3cc(-c4cnccc4C(F)(F)F)ccc32)cc1 [Example 25],1300
8,CNS(=O)(=O)c1ccc(CNC(=O)N2CC3(CCCC3)c3cc(-c4cc(OC)c(OC)cc4C(=O)OC)ccc32)cc1 [Example 26],1400
9,CNS(=O)(=O)c1ccc(CNC(=O)N2CC3(CCCC3)c3cc(-c4ccccc4C(C)=O)ccc32)cc1 [Example 27],1700
10,CCS(=O)(=O)c1ccc(CNC(=O)N2CC3(CCCC3)c3cc(-c4ccc(F)cc4C)ccc32)cc1 [Example 28],1200
11,CNS(=O)(=O)c1ccc(CNC(=O)N2CC3(CCCC3)c3cc(-c4ccc5c(cnn5C)c4C)ccc32)cc1 [Example 40],1100
12,CNS(=O)(=O)c1ccc(CNC(=O)N2CC3(CCCC3)c3cc(-c4cc(C#N)ccc4C)ccc32)cc1 [Example 41],1100
13,CNS(=O)(=O)c1ccc(CNC(=O)N2CC3(CCCC3)c3cc(-c4ccc(CO)cc4C)ccc32)cc1 [Example 42],1100
14,CNS(=O)(=O)c1ccc(CNC(=O)N2CC3(CCCC3)c3cc(-c4cccc(F)c4CC#N)ccc32)cc1 [Example 43],1100
15,CNc1ccc(-c2ccc3c(c2)C2(CCCC2)CN3C(=O)NCc2ccc(S(=O)(=O)NC)cc2)c(C)c1 [Example 44],1100
16,CNS(=O)(=O)c1ccc(CNC(=O)N2CC3(CCCC3)c3cc(-c4ccccc4CC#N)ccc32)cc1 [Example 45],1200
17,CNS(=O)(=O)c1ccc(CNC(=O)N2CC3(CCCC3)c3cc(-c4cc(F)ccc4CC#N)ccc32)cc1 [Example 46],1300
18,CNS(=O)(=O)c1ccc(CNC(=O)N2CC3(CCCC3)c3cc(-c4cccc5[nH]nc(C)c45)ccc32)cc1 [Example 47],1500
19,CNS(=O)(=O)c1ccc(CNC(=O)N2CC3(CCCC3)c3cc(-c4ccc5[nH]ncc5c4C)ccc32)cc1 [Example 48],1600
20,CNS(=O)(=O)c1ccc(CNC(=O)N2CC3(CCCC3)c3cc(-c4cnc(OC)cc4C)ccc32)cc1 [Example 49],1900
21,CNS(=O)(=O)c1ccc(CNC(=O)N2CC3(CCCC3)c3cc(-c4ccc(NC(C)=O)cc4C)ccc32)cc1 [Example 50],1900
22,CCC1(CC)CN(C(=O)NCc2ccc(S(=O)(=O)NC)cc2)c2ccc(-c3ccc(F)cc3C)cc21 [Example 52],1100
23,CCC1(C)CN(C(=O)NCc2ccc(S(=O)(=O)NC)cc2)c2ccc(-c3ccc(F)cc3C)cc21 (stereo not shown) [Example 53],1200
24,Cc1cc(F)ccc1-c1ccc2c(c1)C1(CCCC1)CN2C(=O)NCc1ccc(S(C)(=O)=O)cc1 [Example 54],1300
25,CNS(=O)(=O)c1ccc(CNC(=O)N2CC3(CCCCC3)c3cc(-c4ccc(F)cc4C)ccc32)cc1 [Example 55],1500
26,CNS(=O)(=O)c1ccc(CNC(=O)N2CC(C)(CC(C)C)c3cc(-c4ccc(F)cc4C)ccc32)cc1 (stereo not shown) [Example 59],1500

# More lines, in order of falling IC50, values ahead:
row,IC50 [nM],SMILES
1,1100,CNS(=O)(=O)c1ccc(CNC(=O)N2CC3(CCCC3)c3cc(-c4ccccc4C(=O)OC)ccc32)cc1 [Example 19]
2,1100,CNS(=O)(=O)c1ccc(CNC(=O)N2CC3(CCCC3)c3cc(-c4ccccc4COC)ccc32)cc1 [Example 20]
3,1000,CNS(=O)(=O)c1ccc(CNC(=O)N2CC3(CCCC3)c3cc(-c4cc(C)ccc4C)ccc32)cc1 [Example 3]
4,1000,CNS(=O)(=O)c1ccc(CNC(=O)N2CC3(CCCC3)c3cc(-c4c(C)cccc4C)ccc32)cc1 [Example 17]
5,1000,CNS(=O)(=O)c1ccc(CNC(=O)N2CC3(CCCC3)c3cc(-c4cncnc4C(C)C)ccc32)cc1 [Example 18]
6,1000,CNS(=O)(=O)c1ccc(CNC(=O)N2CC3(CCCC3)c3cc(-c4ccc(C)cc4C#N)ccc32)cc1 [Example 39]
7,970,CNS(=O)(=O)c1ccc(CNC(=O)N2CC3(CCCC3)c3cc(-c4cccc(C#N)c4C)ccc32)cc1 [Example 38]
8,970,CNS(=O)(=O)c1ccc(CNC(=O)N2CC3(CCCC3)c3cc(Oc4ccc(F)c(OC(F)(F)F)c4)ccc32)cc1 [Example 62]
9,960,CNS(=O)(=O)c1ccc(CNC(=O)N2CC3(CCCC3)c3cc(-c4cc(F)ccc4C)ccc32)cc1 [Example 16]
10,940,CNS(=O)(=O)c1ccc(CNC(=O)N2CC3(CCCC3)c3cc(-c4ccc(C#N)cc4C)ccc32)cc1 [Example 15]
11,920,CNS(=O)(=O)c1ccc(CNC(=O)N2CC3(CCCC3)c3cc(-c4ccccc4C)ccc32)cc1 [Example 2]
12,920,CNS(=O)(=O)c1ccc(CNC(=O)N2CC3(CCCC3)c3cc(-c4ccc(N)cc4C(=O)OC)ccc32)cc1 [Example 37]
13,890,CNS(=O)(=O)c1ccc(CNC(=O)N2CC3(CCCC3)c3cc(-c4cc(C(C)=O)ccc4C)ccc32)cc1 [Example 35]
14,890,CNS(=O)(=O)c1ccc(CNC(=O)N2CC3(CCCC3)c3cc(-c4ccncc4C(F)(F)F)ccc32)cc1 [Example 36]
15,880,CNS(=O)(=O)c1ccc(CNC(=O)N2CC(C)(C)c3cc(-c4ccc(OC)cc4C(F)(F)F)ccc32)cc1 [Example 58]
16,870,CNS(=O)(=O)c1ccc(CNC(=O)N2CC3(CCCC3)c3cc(-c4ccc(C)cc4C)ccc32)cc1 [Example 14]
17,840,CNS(=O)(=O)c1ccc(CNC(=O)N2CC3(CCCC3)c3cc(-c4ccc(F)cc4C)ccc32)cc1 [Example 1]
18,840,CNS(=O)(=O)c1ccc(CNC(=O)N2CC3(CCCC3)c3cc(-c4cc(S(=O)(=O)N(C)C)ccc4C)ccc32)cc1 [Example 13]

row,IC50 [nM],SMILES
1,790,CNS(=O)(=O)c1ccc(CNC(=O)N2CC3(CCCC3)c3cc(-c4c(F)cccc4C#N)ccc32)cc1 [Example 34]
2,780,CCOc1ccc(-c2ccc3c(c2)C2(CCCC2)CN3C(=O)NCc2ccc(S(=O)(=O)NC)cc2)c(C)c1 [Example 12]
3,780,CCC1(C)CN(C(=O)NCc2ccc(S(=O)(=O)NC)cc2)c2ccc(-c3ccc(OC)cc3C(F)(F)F)cc21 (stereo not shown) [Example 57]
4,750,CNS(=O)(=O)c1ccc(CNC(=O)N2CC3(CCCC3)c3cc(-c4c(C)ccc5c4cnn5C)ccc32)cc1 [Example 32]
5,750,CNS(=O)(=O)c1ccc(CNC(=O)N2CC3(CCCC3)c3cc(-c4ccccc4-c4cnco4)ccc32)cc1 [Example 33]
6,740,CNS(=O)(=O)c1ccc(CNC(=O)N2CC3(CCCC3)c3cc(-c4cc5c(cnn5C)cc4C)ccc32)cc1 [Example 30]
7,740,CNS(=O)(=O)c1ccc(CNC(=O)N2CC3(CCCC3)c3cc(-c4ccccc4C(F)F)ccc32)cc1 [Example 31]
8,730,CNS(=O)(=O)c1ccc(CNC(=O)N2CC3(CCCC3)c3cc(Oc4cccc(OC(F)(F)F)c4)ccc32)cc1 [Example 61]
9,720,CNS(=O)(=O)c1ccc(CNC(=O)N2CC3(CCCC3)c3cc(-c4cc5cnn(C)c5cc4C)ccc32)cc1 [Example 29]
10,690,CNS(=O)(=O)c1ccc(CNC(=O)N2CC3(CCCC3)c3cc(-c4ccc(O)cc4C)ccc32)cc1 [Example 11]
11,640,CNS(=O)(=O)c1ccc(CNC(=O)N2CC3(CCCC3)c3cc(-c4ccccc4C(F)(F)F)ccc32)cc1 [Example 10]
12,610,CCc1ccccc1-c1ccc2c(c1)C1(CCCC1)CN2C(=O)NCc1ccc(S(=O)(=O)NC)cc1 [Example 9]
13,420,CNS(=O)(=O)c1ccc(CNC(=O)N2CC3(CCCC3)c3cc(-c4ccc(F)cc4C(F)(F)F)ccc32)cc1 [Example 8]
14,400,CNS(=O)(=O)c1ccc(CNC(=O)N2CC3(CCCC3)c3cc(-c4ccc(O)cc4C(F)(F)F)ccc32)cc1 [Example 56]
15,340,CNS(=O)(=O)c1ccc(CNC(=O)N2CC3(CCCC3)c3cc(-c4cc(F)ccc4C(F)(F)F)ccc32)cc1 [Example 7]
16,310,CNS(=O)(=O)c1ccc(CNC(=O)N2CC3(CCCC3)c3cc(-c4ccc(OC)cc4C(F)(F)F)ccc32)cc1 [Example 6]
17,250,CNS(=O)(=O)c1ccc(CNC(=O)N2CC3(CCCC3)c3cc(Oc4cc(C(F)(F)F)ccc4C)ccc32)cc1 [Example 60]
